According to patent US8883827B2, “Azole derivatives as WTN pathway inhibitors” (Oslo University Hospital HF, priority 2009, dated 2014):

Key:
Type in all cases: cell-based
canonical Wnt signaling [1] = assay: ST-Luc (SuperTOPFlash) Luciferase assay in HEK293 cells, 30% Wnt3a-CM; details: Homo sapiens, HEK293; 10 μM compound, 30% Wnt3a-CM, 24 h; relative to DMSO control
Method: Inhibition of Wnt signaling by compound No. 1 was quantified in vitro using a Luciferase assay in HEK293 cells transiently transfected with SuperTOPFlash plasmid (ST-Luc) (Veeman M T et al., Curr. Biol. 13: 680-685, 2003) at concentrations from 0.1-10 μM. HEK293 cells were purchased from ATCC (American Type Culture Collection) and maintained according to suppliers recommendations.
Transfection was performed using 80000 HEK293 cells seeded in 48-well plates coated with poly-L lysine. After 24 hours, 0.25 μg total plasmid DNA (0.23 μg SuperTOPFlash+0.02 μg pRL-TK (Renilla)—Promega) and 0.75 μl FuGENE6 (Roche) was combined in a total volume in 25 μl Opti-MEM® (Invitrogen) as described by the manufacturer (Roche). The transfection mixture was added to the plated cells and media were changed after 24 hours.
The Luciferase assay was performed by incubating transfected cells for 24 hours with various concentrations of compound No. 1 in 30% Wnt3a-CM (Wnt3a containing conditioned medium from L Wnt3a cells was harvested as described by ATCC). All treated reporter cells were finally lysed and the firefly luciferase and Renilla activities were measured on a 20/20n Luminometer (Turner BioSystems) as described in the Dual-Glo™ Luciferase Assay System Technical Manual (Promega).
HEK293 cells were transfected, grown and assayed as described in Example 22. 24 hours after seeding, the cells were incubated for an additional 24 hours with 10 μM concentrations of compounds in 30% Wnt3a-CM.
The percent activities shown in Table 3 are calculated relative to DMSO as a control. Some values shown are averages of multiple measurements. Compound XAV939 (Novartis; Huang et al., Nature (2009), 461, pp. 614-20) which is used as a positive control, has an activity of 7%.

[2] = system: SW480 colon carcinoma cells; assay: MTS cell proliferation assay, Table 5; details: Homo sapiens; SW480, 10 μM, 72 h; relative to DMSO control; read-out: Cell proliferation (%) for test compounds
Method: For the experiment giving the results shown in Table 5, cells (3000 per well) were seeded on 96 well plates (eight replicates per treatment). After 24 hours, and daily thereafter, cell culture medium (including 10% FBS) was mixed with 10 μM compounds or with 0.1% DMSO vehicle and then added to the wells. Sixteen wells of seeded control cells, defining incubation time zero (t0=24 hour after cell seeding), were incubated with 20 μl substrate in 100 μl phenol free D-MEM (Invitrogen) for 2 hours, as described in the CellTiter 96® AQueous Non-Radioactive Cell Proliferation Assay protocol (Promega). The A490 was recorded. The treatment samples were likewise measured after 72 hours.
The quantity of reduced MTS product (as measured by the absorbance at 490 nm) is directly proportional to the number of living cells in the culture and thus allows a direct comparison of cell proliferation in each case. DMSO was used as a control. The following formula was used to determine single well relative A490 sample values: ((Sample A490−Average A490t0)*100)/(Average A490t720.1% DMSO control−Average A490t0)
The proliferation of SW480 cells (in percent) is the A492 value relative to that of the DMSO control.

canonical Wnt signaling [3] = assay: IC50 in STF/REN HEK293 cells, 50% Wnt3a-CM; details: Homo sapiens; STF/REN HEK293, 50% Wnt3a-CM, 24 h
Method: IC50 values were calculated using STF/REN HEK293 cells prepared essentially according to Example 22. Briefly, HEK293 cells (80,000 cells per well) were seeded in 48-well plates coated with poly-L lysine. 24 hours after seeding, the cells were incubated for an additional 24 hours with various compound concentrations in 50% Wnt3a-CM. After compound exposure, the cells were lysed and the firefly luciferase and Renilla activities were measured on a 20/20n Luminometer (Turner BioSystems) as described in the Dual-Glo™ Luciferase Assay System Technical Manual (Promega).
(§1) XLfit (idbs) was used to determine the IC50 and GI50 values in inhibition experiments. The data were fit to the following formulae:
IC50: Langmuir Binding Isotherm: fit=((A+(B*x))+(((C−B)*(1−exp((−1*D)*x)))/D)) res=(y−fit)

SW480 cells = assay: Growth inhibition (GI50) MTS assay; details: Homo sapiens, 72 h
Method: Growth inhibition curves were prepared using SW480 cells, prepared essentially according to Example 23. SW480 cells (3000 cells per well) were seeded on 96 well plates (eight replicates per treatment). 24 hours later and daily thereafter, cell culture media (including 10% FBS) was mixed with various compound concentrations or with 0.1% DMSO vehicle and then added to the wells. Sixteen wells of seeded control cells, defining incubation time zero (to =24 hour after cell seeding), were incubated with […] substrate in 100 μl of phenol-free D-MEM (Invitrogen) for 2 hours, as described in the CellTiter 96® AQueous Non-Radioactive Cell Proliferation Assay protocol (MTS, Promega). The A490 was recorded. The treatment samples were likewise measured after 72 hours. The following formula was used to determine the single well relative A490 sample values: ((Sample A490−Average A490t0)*100)/(Average A490t720.1% DMSO control−Average A490t0)
as §1
GI50: Eadie-Hofstee Model: fit=(A+((B*x)/((C*(D+1))+x))) inv=(((y−A)*(C*(D+1)))/((A+B)−y)) res=(y−fit)

| SMILES | IC50 (canonical Wnt signaling [3]) | GI50 (SW480 cells) | activity at 10 µM (canonical Wnt signaling [1]) | activity at 10 µM [2] |
| --- | --- | --- | --- | --- |
| Cc1ccc(-c2nnc([C@@H](C)Sc3nnc(-c4ccncc4)n3-c3ccccc3Cl)o2)cc1 [99b] | 163 nM | – | 12% | 72% |
| COc1ccc(-n2c(SCc3nc(-c4ccc(Cl)cc4)no3)nnc2-c2ccncc2)cc1 [Compound 5] | 950 nM | 10000 nM | 10% | – |
| Cc1ccc(-c2noc(CSc3nnc(-c4ccncc4)n3-c3ccccc3C)n2)cc1 [Compound 7] | 880 nM | 7500 nM | 5.6% | – |
| COc1ccc(-n2c(SCc3nc(-c4ccc(C)cc4)no3)nnc2-c2ccccc2OC)cc1 [Compound 8] | 2100 nM | 10500 nM | 28.5% | – |
| Cc1ccc(-c2noc(CSc3nnc(-c4ccncc4)n3-c3cccc(Cl)c3C)n2)cc1 [Compound 10] | 3300 nM | 13500 nM | 10.1% | – |
| COc1ccc(-n2c(SCc3nnc(-c4ccccc4)o3)nnc2-c2ccncc2)cc1 [Compound 11] | 1500 nM | > 25000 nM | 9.3% | – |
| COc1ccc(-n2c(SCC(C)(C)c3nc(-c4ccc(C)cc4)no3)nnc2-c2ccncc2)cc1 [Compound 18] | 5900 nM | > 25000 nM | 32.3% | – |
| COc1ccc(-n2c(NCc3nc(-c4ccc(C)cc4)no3)nnc2-c2ccncc2)cc1 [Compound 19] | 8800 nM | > 25000 nM | 44.1% | – |
| Cc1ccccc1-n1c(SCc2nc(-c3ccc(Cl)cc3)no2)nnc1-c1ccncc1 [Compound 41] | 470 nM | < 5000 nM | 9.4% | – |
| Cc1ccc(-c2noc(CSc3nnc(-c4ccncc4)n3-c3ccccc3F)n2)cc1 [Compound 42] | 400 nM | 8000 nM | 14.6% | – |
| Cc1ccc(-c2noc(CSc3nnc(-c4ccncc4)n3-c3cccc(C)c3C)n2)cc1 [Compound 44] | 570 nM | 22000 nM | 10.4% | – |
| Cc1ccc(-c2nnc(CSc3nnc(-c4ccc(Cl)c(Cl)c4)n3-c3ccccc3Cl)o2)cc1 [compound 131, 3-((5-p-tolyl-1,3,4-oxadiazol-2-yl)methylthio)-4-(2-chlorophenyl)-5-(3,4-dichlorophenyl)-4H-1,2,4-triazole] | – | – | 4% | 53% |

Continued, in another order:

| IC50 (canonical Wnt signaling [3]) | GI50 (SW480 cells) | SMILES | activity at 10 µM (canonical Wnt signaling [1]) | activity at 10 µM [2] |
| --- | --- | --- | --- | --- |
| 700 nM | 9000 nM | Cc1ccc(-c2noc(CSc3nnc(-c4ccnc(O)c4)n3-c3ccccc3C)n2)cc1 [Compound 46] | 13.3% | – |
| 220 nM | 9000 nM | Cc1ccc(-c2nnc(CSc3nnc(-c4ccncc4)n3-c3ccccc3C)o2)cc1 [Compound 48] | 9.9% | – |
| 218 nM | – | Cc1ccc(-c2nnc(CSc3nnc(-c4ccc(Cl)nc4)n3-c3ccccc3Cl)o2)cc1 [Compound 108] | 0.8% | 42% |
| 381 nM | – | Cc1ccc(-c2nnc(CSc3nnc(-c4ccncc4)n3-c3ccccc3Cl)o2)cn1 [compound 68] | 17% | 60% |
| 551 nM | – | Cc1ccc(-c2nnc(CSc3nnc(-c4ccncc4)n3-c3ccccc3Cl)o2)c(Br)c1 [compound 72] | 20% | 55% |
| 29 nM | – | Cc1ccc(-c2nnc(CSc3nnc(-c4ccncn4)n3-c3ccccc3Cl)o2)cc1 [compound 105, 4-(5-((5-p-tolyl-1,3,4-oxadiazol-2-yl)methylthio)-4-(2-chlorophenyl)-4H-1,2,4-triazol-3-yl)pyrimidine] | 4.4% | 54% |
| 872 nM | – | Cc1ccc(-c2nnc(CSc3nnc(-c4ccc(F)cc4F)n3-c3ccccc3Cl)o2)cc1 [compound 110, 3-((5-p-tolyl-1,3,4-oxadiazol-2-yl)methylthio)-4-(2-chlorophenyl)-5-(2,4-difluorophenyl)-4H-1,2,4-triazole] | 2% | 50% |
| 688 nM | – | Cc1ccc(-c2nnc(CSc3nnc(-c4ccc(Cl)cc4Cl)n3-c3ccccc3Cl)o2)cc1 [compound 112, 3-((5-p-tolyl-1,3,4-oxadiazol-2-yl)methylthio)-5-(2,4-dichlorophenyl)-4-(2-chlorophenyl)-4H-1,2,4-triazole] | 0.3% | 39% |
| 59 nM | – | Clc1ccc(-c2nnc(CSc3nnc(-c4ccncc4)n3-c3ccccc3Cl)o2)cc1 [compound 113, 4-(5-((5-(4-chlorophenyl)-1,3,4-oxadiazol-2-yl)methylthio)-4-(2-chlorophenyl)-4H-1,2,4-triazol-3-yl)pyridine] | 4.9% | 56% |
| 795 nM | – | Clc1ccc(-c2nnc(CSc3nnc(-c4ccncc4)n3-c3ccccc3Cl)o2)c(Cl)c1 [compound 114, 4-(5-((5-(2,4-dichlorophenyl)-1,3,4-oxadiazol-2-yl)methylthio)-4-(2-chlorophenyl)-4H-1,2,4-triazol-3-yl)pyridine] | 4.2% | 69% |
| 262 nM | – | Cc1ccc(-c2nnc(CSc3nnc(-c4ccnc(O)c4)n3-c3ccccc3Cl)o2)cc1 [compound 116, 4-(5-((5-p-tolyl-1,3,4-oxadiazol-2-yl)methylthio)-4-(2-chlorophenyl)-4H-1,2,4-triazol-3-yl)pyridin-2-ol] | 7% | 70% |
| 834 nM | – | Clc1cc(Cl)cc(-c2nnc(CSc3nnc(-c4ccncc4)n3-c3ccccc3Cl)o2)c1 [compound 117, 4-(5-((5-(3,5-dichlorophenyl)-1,3,4-oxadiazol-2-yl)methylthio)-4-(2-chlorophenyl)-4H-1,2,4-triazol-3-yl)pyridine] | 9% | 85% |
| 151 nM | – | Clc1ccc(-c2nnc(CSc3nnc(-c4ccncc4)n3-c3ccccc3Cl)o2)cc1Cl [compound 130, 4-(5-((5-(3,4-dichlorophenyl)-1,3,4-oxadiazol-2-yl)methylthio)-4-(2-chlorophenyl)-4H-1,2,4-triazol-3-yl)pyridine] | 9% | 72% |
